# Tests used:
# [1] = test system: Human (mixed gender) hepatocytes pooled from 10 donors; assay: In vitro intrinsic clearance in human hepatocytes; type: in vitro ADME; conditions: human hepatocytes 0.545 million cells/mL, 5 μM, up to 60 minutes at 37° C.; weighted by ratio of D0, D1 and D2
# Description: To use human hepatocytes to assess the in vitro intrinsic clearance of deuterated DMT analogue blends relative to DMT.
# Human (mixed gender) hepatocytes pooled from 10 donors (0.545 million cells/mL) were used to investigate the in vitro intrinsic clearance of DMT and 6 deuterated analogues.
# A concentration of 5 μM was used for all test compounds, as well as sumatriptan, serotonin, benzylamine controls. This concentration was chosen in order to maximise the signal-to-noise ratio, while remaining under the Michaelis constant (Km) for the monoamine oxidase enzyme (MAO). Diltiazem and diclofenac controls were used at a laboratory-validated concentration of 1 μM.
# Test compounds were mixed with the hepatocyte suspension within a 96-well plate and incubated for up to 60 minutes at 37° C. […] At 7 time points, small aliquots were withdrawn, and the test compound/blend concentration therein was measured by LC-MS/MS. The time points measured were 2, 4, 8, 15, 30, 45 and 60 minutes. […]
# The resulting concentration-time profile was then used to calculate intrinsic clearance (CLint) and half-life (t½). […] Intrinsic clearance is calculated from the slope/elimination rate constant and the formula is CLint=(−1000*slope)/cell denisty in 1E6 cells/ml, to give units of microlitre/min/million cells.
# Intrinsic clearance and half-life values were calculated for DMT and the 6 deuterated mixtures described above.
# [2] = short-acting psychedelic; cited from earlier work
Compound,Intrinsic clearance [1],duration of action [2]
"CN(C)CCc1c[nH]c2ccccc12 [DMT, N,N-dimethyltryptamine]",13.77 μL/min/million cells,
"CN(C)CCc1c[nH]c2ccccc12 [N,N-dimethyltryptamine (DMT)]",,under 20 minutes

# From patent publication US12076311B2, “Therapeutic compositions comprising deuterated or partially deuterated N,N-dimethyltryptamine compounds” (CYBIN UK LTD, priority 2019, dated 2024)
